Results as given in patent US9790193B2, “Semicarbazide-sensitive amine oxidase inhibitors for use as analgesics in traumatic neuropathy and neurogenic inflammation” (PÉCSI TUDOMÁNYEGYETEM, priority 2014, dated 2017).
“Also recorded” adds a separate entry of the source.

Legend:
[1] = tested on: sciatic nerve ligation-induced mechanical allodynia; test: Sciatic nerve ligation-induced traumatic mononeuropathy, mechanical allodynia in rats (dynamic plantar aesthesiometry); type: in vivo, male Wistar rats; details: for change of the mechanonociceptive thresholds, contralateral side of the operated rats / inhibitory effect on mechanical allodynia / mechanical allodynia (decrease of withdrawal threshold vs initial control) after drug injection: rat; for change of the mechanonociceptive thresholds, contralateral side of the operated rats: contralateral paw; for change of the mechanonociceptive thresholds, contralateral side of the operated rats / mechanical allodynia (decrease of withdrawal threshold vs initial control) after drug injection / change of the mechanonociceptive thresholds, sham-operated group: 20 mg/kg i.p.; for inhibitory effect on mechanical allodynia / mechanical allodynia (decrease of withdrawal threshold vs initial control) after drug injection: operated limb; for inhibitory effect on mechanical allodynia: day 7, 20 mg/kg i.p., post- vs pre-injection; for mechanical allodynia (decrease of withdrawal threshold vs initial control) after drug injection: day 7 after nerve ligation, 15 min after administration, mean±s.e.m.; for change of the mechanonociceptive thresholds, sham-operated group: sham-operated rats
Procedure: (§1) The solutions were prepared freshly on the day of the experiment with sterile saline. SZV-1287 (prepared according to WO 2010/029379 A1) dissolved in saline and the solution was clear. The SZV-1911 (prepared according to WO2006/094201 and WO2005/014530) solution was prepared with Tween 80 and ethanol, stirred properly with a vortex, heated moderately to 42° C. and sonicated, but it was still opalescent. The i.p. administered volume was 0.2 ml/100 g body weight from 10 mg/ml in rats solution and 0.1 m/10 g body weight from 2 mg/ml solution to achieve the 20 mg/kg doses. The solvent of SZV-1911 was given to the vehicle-treated animals in the same volume.
(§2) Sciatic nerve ligation-induced traumatic mononeuropathy experiments were performed on male Wistar rats (250-300 g), and on male C57Bl/6 mice as well as resiniferatoxin- or formalin-induced hyperalgesia. The original breeding pairs of the animals were purchased from Charles River Ltd. All the animals were kept in the Animal Facility of the Department of Pharmacology and Pharmacotherapy at the University of Pécs at 24-25° C. provided with standard chow and water ad libitum.
Before all experiments one conditioning and three reliable control threshold measurements were performed on three consecutive days. All operations were performed by the same operator, who was blinded to the animal group assignments and the treatment allocation (FIG. 1A for the rat, B for the mouse experimental paradigm).
(§3) On the 3rd and on the 7th day following the nerve ligation, the mechano-nociceptive thresholds were determined directly before and 15 min after i.p. drug administration to observe the difference between pre-injection and post-injection thresholds in mice. We determined the developing cold allodynia following the sciatic nerve ligation at Days 3 and 7. In rats we examined the developing mechanical allodynia just 7 days after the sciatic nerve ligation on the same way like in mice. Only animals with a minimum of 25% hyperalgesia/allodynia were included in the study (Seltzer et al., Pain., 1990, 43(2):205-18; Pintér et al., Naunyn Schmiedebergs Arch Pharmacol., 2002, 366(2):142-50.).
Mice were anaesthesized with a combination of ketamine and xylazine (100 mg/kg and 5 mg/kg i.p. respectively), but in rats Na-pentobarbital (40 mg/kg i.p) were used. The common sciatic nerve was exposed unilaterally on the right side high in the thigh and ⅓-½ of the nerve trunk was carefully separated and tightly ligated using a siliconised silk suture (Ethicone 5-0 and 8.0, respectively). Then the wound was closed and the animals were allowed to survive for 8 days (Seltzer, 1990; Malmberg and Basbaum 1998; Bolcskei et al. 2005; Sandor et al. 2010). During this period, signs of spontaneous pain (holding the legs in elevated position transiently for 2-3 days) and mechanical hyperalgesia and cold allodynia developed. In order to investigated the efficacy of these drugs we examined the drop of the mechanical touch sensitivity on Day 3, however the decrease of the mechanical threshold develops fully 7 days after the surgery.
The mechanical touch sensitivity thresholds of the plantar surface of the paws was determined by aesthesiometry (Ugo Basile Dynamic Plantar Aesthesiometer 37400; Comerio, Italy). This is an electronic von Frey device, in which the animals moved about freely in one of the compartments of the enclosure positioned on the metal mesh surface. Following acclimation after cessation of exploratory behaviour, the touch stimulator unit was placed under the animal's paw, using the adjustable angled-mirror to position the filament below the target area of the plantar surface. Then an electrodynamic actuator of proprietary design lifted a straight metal filament, which touched the plantar surface and began to exert an increasing upward force at a preset rate of application until a stop signal (removal of the paw) was attained. The paw withdrawal threshold was obtained in grams. […]

[2] = tested on: sciatic nerve ligation-induced mechanical hyperalgesia; test: Sciatic nerve ligation-induced traumatic mononeuropathy, mechanical hyperalgesia in mice (dynamic plantar aesthesiometry); type: in vivo, male C57Bl/6 mice; details: mouse, injured paw, single dose 20 mg/kg i.p., 15 minutes after administration, vs postoperative control values
Procedure: as §1
Sciatic nerve ligation-induced traumatic mononeuropathy experiments were performed on male Wistar rats (250-300 g), and on male C57Bl/6 mice as well as resiniferatoxin- or formalin-induced hyperalgesia. […]
On the 3rd and on the 7th day following the nerve ligation, the mechano-nociceptive thresholds were determined directly before and 15 min after i.p. drug administration to observe the difference between pre-injection and post-injection thresholds in mice. We determined the developing cold allodynia following the sciatic nerve ligation at Days 3 and 7. […]
The mechanical touch sensitivity thresholds of the plantar surface of the paws was determined by aesthesiometry (Ugo Basile Dynamic Plantar Aesthesiometer 37400; Comerio, Italy). […]

[3] = tested on: sciatic nerve ligation-induced cold allodynia; test: Sciatic nerve ligation-induced cold allodynia in mice (paw withdrawal latency from 0° C. water); type: in vivo, male C57Bl/6 mice; details: mouse, injured paw, days 3 and 7 after nerve ligation
Procedure: as §3
Mice were anaesthesized with a combination of ketamine and xylazine (100 mg/kg and 5 mg/kg i.p. respectively), but in rats Na-pentobarbital (40 mg/kg i.p) were used. […]
A noxious cold stimulus was applied by immersing one of the murine hindpaws in icy water, remaining the temperature steady at 0° C. Cold perception was assessed as the time taken by the animal to pulling out its paw from the cold water, the cut-off time was 180 seconds. […]
The paw withdrawal latency values were determined as % by comparing the latencies measured on day 3 and 7 after the operation to the mean initial latency values. […] Results are expressed as means±s.e.m of the withdrawal behaviour latency changes of n=6-6 mice per groups. […]

[4] = tested on: RTX-induced hyperalgesia; test: Resiniferatoxin-evoked thermal and mechanical hyperalgesia in mice; type: in vivo, male C57Bl/6 mice; details: mouse; for drop of mechanonociceptive threshold after RTX at 2 hours: solvent group 47.1±6%; for acute neurogenic inflammatory heat allodynia: only significant in case of SZV-1287 after RTX
Procedure: as §1, §2
The mechanical touch sensitivity thresholds of the plantar surface of the paws was determined by aesthesiometry (Ugo Basile Dynamic Plantar Aesthesiometer 37400; Comerio, Italy). This is an electronic von Frey device, in which the animals moved about freely in one of the compartments of the enclosure positioned on the metal mesh surface. Following acclimation after cessation of exploratory behaviour, the touch stimulator unit was placed under the animal's paw, using the adjustable angled-mirror to position the filament below the target area of the plantar surface. Then an electrodynamic actuator of proprietary design lifted a straight metal filament, which touched the plantar surface and began to exert an increasing upward force at a preset rate of application until a stop signal (removal of the paw) was attained. The paw withdrawal threshold was obtained in grams. Hyperalgesia or allodynia (decrease of the withdrawal thresholds) was expressed as percentage by comparing the data of each individual animal to the averaged three initial control thresholds.
Resiniferatoxin (RTX) is a potent agonist of Transient Receptor Potential Vanilloid 1 (TRPV1) receptors, which are mainly expressed on capsicin-sensitive sensory nerve ending. Intraplantarly (i.pl.) injection of RTX (0.03 μg/ml; 20 μl) into one of the hindpaws induced an acute inflammation and a robust drop of heat and mechanical thresholds.
The noxious heat threshold of the paw, defined as the lowest temperature evoking nocifensive behaviour—was measured with an increasing-temperature hot plate (IITC Life Science, Woodland Hills, Calif., USA). After habituation, mice were placed onto the plate, which was then heated up from room temperature at a rate of 12° C./min until the animals showing nocifensive behaviour (licking, lifting or shaking one of the hindpaws). The corresponding plate temperature was considered as the noxious heat threshold.
Lines represent thermal and mechanical hyperalgesia before drug injection and 5, 10, 15, 20 min as well as 2, 4, 6, 24 hours, respectively after compound/solvent administration. Results are expressed as means±s.e.m. of the thermo- and mechanonociceptive threshold changes of n=7-8 per groups. Data were analysed with Two-way ANOVA following Bonferroni's post-test in comparison to determine differences between the pre- and post-injection values of the respective groups **p<0.01, *** p<0.001 SZV-1287 vs. saline and ### p<0.001 SZV-1911 vs. saline.

[5] = tested on: formalin-induced acute nocifensive behaviours and hyperalgesia; test: Formalin-induced acute nocifensive behaviour and hyperalgesia in mice; type: in vivo, male C57Bl/6 mice; details: mouse
Procedure: as §1
as §2, with “libitum. […]” for “libitum.”
The noxious heat threshold of the paw, defined as the lowest temperature evoking nocifensive behaviour—was measured with an increasing-temperature hot plate (IITC Life Science, Woodland Hills, Calif., USA). […]
The total duration of paw licking and lifting were expressed to representing the nociceptive behaviour. […] Mechanical hyperalgesia values were determined as % by comparing the nociceptive thresholds measured at 2 and 4 hours after the application to the initial threshold values. Results are expressed as means±s.e.m. of the thermo- and mechanonociceptive threshold changes of n=11-11 animals/groups. Data were analysed with One-way ANOVA following Bonferroni's post-test in comparison to determine differences between the pre- and post-injection values of the respective groups.

SMILES	change of the mechanonociceptive thresholds, contralateral side of the operated rats [1]	inhibitory effect on mechanical allodynia [1]	mechanical allodynia (decrease of withdrawal threshold vs initial control) after drug injection [1] [%]	change of the mechanonociceptive thresholds, sham-operated group [1]	sciatic nerve ligation-induced neuropathic mechanical hyperalgesia [2]	neuropathic cold hyperalgesia (cold allodynia, paw withdrawal latency) [3]	drop of mechanonociceptive threshold after RTX at 2 hours ([4]; 20 mg/kg i.p. pretreatment) [%]	drop of heat threshold after intraplantar RTX ([4]; 20 mg/kg i.p. pretreatment, maintained during 15 minutes, solvent group approx. 8 degree)	acute neurogenic inflammatory heat allodynia [4]	thermonociceptive threshold after formalin application ([5]; 1 hour, basal 44.8±1.7° C., saline treated mice 37.4±3° C.) [°C]	nocifensive behaviour (total duration of paw lickings and liftings), early phase ([5]; formalin i.pl., early phase (0-5 min), vs saline)	nocifensive behaviour (total duration of paw lickings and liftings), late phase ([5]; formalin i.pl., late phase (20-45 min), vs saline)	sciatic nerve ligation-induced neuropathic mechanical hyperalgesia ([2]; 20 mg/kg)	change of mechanonociceptive threshold after RTX at 4 hours ([4]; 20 mg/kg i.p. pretreatment, 4 hours, solvent group 35.3±3%) [%]
ON=CCCc1nc(-c2ccccc2)c(-c2ccccc2)o1 [SZV-1287, 3-(4,5-diphenyl-1,3-oxazol-2-yl)propanal oxime]	No change	approximately 30%	34.6±7.6	No change	significantly decreased	did not influence	22.1±7	1-2 °C	moderately decreased	37.5±4	significantly lower	significantly lower		
C=C(CNN)c1ccccc1 [SZV-1911, (2-phenyl-2-propen-1-yl)hydrazine]	No change	approximately 30%	32.9±3.4	No change		did not influence	14.7±6		moderately decreased				significantly diminished; also recorded: significantly decreased	6.5±6
